Consider three molecules from patent US7858608B2, “Bile acid derivatives as FXR ligands for the prevention or treatment of FXR-mediated diseases or conditions” (Intercept Pharmaceuticals, Inc., priority 2006, dated 2010).

Read-outs that look alike come from different tables or passages of the source.

The subject of one data set is HepG2 cells. Nature of the data set: Direct cell toxicity on exposure of HepG2 cells. The class given is cell-based, human. The settings on record: HepG2 cells exposed to the ligands.
For data set [1], the system named is FXR regulated genes (SHP, CYP7α1, SREPB-1c, FAS, BSEP). To be noted: human, 18 h, 10 μM. An excerpt: Human hepatocyte cell line HepG2 was used for these studies.
The effects of these ligands on FXR responsive genes was then investigated by quantitative reverse transcription PCR (qRT-PCR).

Data set [2] concerns the target T1, FXR (Homo sapiens, UniProt Q96RI1).
T1 sequence (Q96RI1 1-486): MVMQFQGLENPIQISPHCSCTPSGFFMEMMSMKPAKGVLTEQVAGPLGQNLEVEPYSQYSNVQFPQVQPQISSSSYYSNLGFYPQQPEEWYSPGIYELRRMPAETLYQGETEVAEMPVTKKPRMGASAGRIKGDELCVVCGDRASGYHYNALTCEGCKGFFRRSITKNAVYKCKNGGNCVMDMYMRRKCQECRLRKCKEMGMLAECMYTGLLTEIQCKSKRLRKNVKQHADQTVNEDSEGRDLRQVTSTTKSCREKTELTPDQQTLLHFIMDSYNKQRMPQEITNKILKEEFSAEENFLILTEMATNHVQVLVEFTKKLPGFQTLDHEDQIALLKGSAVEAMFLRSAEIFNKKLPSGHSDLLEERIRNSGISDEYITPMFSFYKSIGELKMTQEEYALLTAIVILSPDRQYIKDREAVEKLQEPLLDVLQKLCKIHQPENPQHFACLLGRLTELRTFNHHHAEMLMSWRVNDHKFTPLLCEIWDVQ
Nature of the data set: Cell transfection (transactivation) assay in HepG2 cell line. The settings on record: HepG2 cells, 1 μM. The class given is cell-based. Also on record: expressed in transfected cells; host or cells: HepG2. The method, then:
It was also evaluated if compound (Ia) modulated FXR-regulated genes in a cellular assay using a human hepatocyte cell line (HepG2). […] A detailed description of these methods can be found in the following reference: Fiorucci S., et al. Gastroenterology 2004.

Data set [3] concerns FXR or other nuclear receptors. Kind of data set: Liver cells transfected with viral constructs carrying FXR or other nuclear receptors upstream of the luciferase gene. In kind it is cell-based. To be noted: mouse, rat, and human hepatocytes, luciferase reporter.
Data set [4] has as its target T1, FXR. Nature of the data set: Cell-free FRET assay, recruitment of the SRC1 peptide to FXR. In kind it is biochemical. To be noted: for Potency in activating FXR relative to CDCA (concentration for Scr-1 recruitment lower than CDCA): cell-free FRET assay, versus CDCA. The text has this: This technology, a cell free assay, is described in […]., et al. J Med Chem. 2002 15; 45:3569-72).

For the molecule `CC[C@H]1[C@@H](O)[C@@H]2[C@H](CC[C@]3(C)[C@@H]([C@H](C)CCC(=O)O)CC[C@@H]23)[C@@]2(C)CC[C@@H](O)C[C@@H]12` [Compound 6-ECDCA, 6-ethyl-chenodeoxycholic acid], the Direct cell toxicity result with HepG2 cells is “no direct cell toxicity”.
As to `C[C@H](CCC(=O)O)[C@H]1CC[C@H]2[C@@H]3[C@H](O)C[C@@H]4C[C@H](O)CC[C@]4(C)[C@H]3CC[C@]12C` [CDCA, chenodeoxycholic acid, reference compound], in the data set with HepG2 cells, the Direct cell toxicity result is “no direct cell toxicity”. For the same molecule, in data set [1], the “Induction of SHP expression” value is 2-3 fold and the “Reduction of the expression of CYP7α1 mRNA” value is recorded as 60-70%.
As to `C[C@H](CCNC(=O)OC/C=C/c1ccccc1)[C@H]1CCC2C3C(CC[C@@]21C)[C@@]1(C)CC[C@@H](O)CC1C[C@H]3O` (stereo partly drawn) [Compound (Ia), 23-N-Carbacinnamyloxy-3α,7α-dihydroxy-5β-norcholanylamine], the melting point lay in the range of 79 to 84 °C. For the same molecule, the “Transactivation of FXR” value on FXR [2] is on record as “transactivation”. The “Transactivation of FXR” value at FXR [2] (listed as compound (Ia)) was “transactivates FXR”. For the same molecule, the “Selectivity for FXR over other nuclear receptors” value in data set [3] is reported as “selective FXR ligand”. For the same molecule, in the data set on HepG2 cells, the Direct cell toxicity entry is reported as “no direct cell toxicity”. The “Induction of BSEP mRNA expression” value in data set [1] was “approximately 13 fold”. Further, the “Efficacy (relative recruitment of the SRC1 peptide to FXR where CDCA = 100%)” value at FXR [4] (FRET, human FXR, mean ± SE, n = 4) stood at 66%. For the same molecule, the EC50 on FXR [4] (FRET, human FXR, mean ± SE, n = 4, read-out: Cell-Free Assay EC50) stood at 592 nM. Moreover, the “Potency in activating FXR relative to CDCA (concentration for Scr-1 recruitment lower than CDCA)” value at FXR [4] is listed as “approximately 20 fold”. Also, on FXR [4] (listed as compound (Ia)), the “Potency in activating FXR relative to CDCA (concentration for Scr-1 recruitment lower than CDCA)” value is roughly 20 fold. Besides, the EC50 at FXR [4] (concentrations ranging from 1 nM to 100 μM, read-out: EC50 as FXR ligand in cell free FRET assay (Table 2 summary)) is roughly 500 nM.
